Row | SMILES | melting point [°C]
1 | O=C(CCl)NC(=O)NCc1cccs1 | 148 to 150
2 | O=C(O)c1ccccc1SCc1ccc(Br)cc1 | 233 to 235
3 | COc1cc(C=O)c([N+](=O)[O-])cc1OCc1ccccc1 | 130 to 132
4 | COc1ccc(-c2cc(C(=O)O)n(-c3ccccc3)n2)cc1 | 190 to 192
5 | NCC(O)c1cccc(OCc2ccccc2)c1 (stereo unspecified) | 107 to 109
6 | O=C(Nc1ccc(C(F)(F)F)cc1)OCC(F)(F)F | 102 to 104
7 | COc1ccc(Cl)cc1NC(=O)CC(=O)Nc1cc(Cl)ccc1OC | 98 to 101
8 | O=C(NC1CCCC1)c1ccc(Cl)nn1 | 139 to 141
9 | O=C(O)C1CCCCN1S(=O)(=O)c1ccc(Br)s1 (stereo unspecified) | 125 to 127
10 | CC(Cl)c1ncc(-c2ccccc2)o1 (stereo unspecified) | 54 to 56
11 | O=C(O)c1cc(-c2cccc(Br)c2)nc2ccccc12 | 215 to 217
12 | O=C(O)c1nnn(-c2cccc(C(F)(F)F)c2)c1C1CC1 | 169 to 171
13 | O=C(O)c1ccc(NC(=O)c2cccc(Br)c2)cc1 | 271 to 273
14 | COC(=O)c1cc([N+](=O)[O-])ccc1S(=O)(=O)Cl | 109 to 111
15 | O=C(O)C1CCCCN1C(=O)c1cccnc1 (stereo unspecified) | 188 to 190
16 | Cc1nn(-c2ccccc2)c(N2CCCCC2)c1C=O | 75 to 77
17 | O=C(O)c1sccc1S(=O)(=O)N1CCOCC1 | 189 to 191
18 | O=C(O)CCOc1ccc(F)c(Cl)c1 | 82 to 84
19 | O=C(O)c1nn(-c2cc(C(F)(F)F)ccc2Cl)c2c1CCC2 | 229 to 231
20 | O=C(O)CNC(=O)C1c2ccccc2C(=O)N1C1CC1 (stereo unspecified) | 242 to 244
21 | O=C(O)CN(CC(=O)O)Cc1ccccc1 | 200 to 202
22 | CS(=O)(=O)c1ccc(CNC(=O)CCl)cc1 | 142 to 144
23 | Cc1ccccc1-n1nnnc1S | 65 to 67
24 | NC(=O)CS(=O)(=O)c1ccc(C(=O)O)cc1 | 255 to 257
25 | C=CC(=O)NCc1ccc(C(=O)O)cc1 | 197 to 199
26 | O=C(O)CC1(C(=O)O)CCN(C(=O)OCc2ccccc2)C1 (stereo unspecified) | 169 to 171

Row | SMILES | melting point [°C]
27 | C#Cc1cccc(NC(=O)NC(=O)CCl)c1 | 185 to 187
28 | O=C(O)C1CCN(S(=O)(=O)c2cccnc2)CC1 | 237 to 239
29 | CC(C)c1ccc(S(=O)(=O)Cc2ccoc2C(=O)O)cc1 | 156 to 158
30 | Cn1ncc(C(=O)O)c1Br | 202 to 204
31 | O=S(=O)(Cl)c1ncn[nH]1 | 58 to 60
32 | N#Cc1ccc(C=C2CCn3c2nc2cc(C(=O)O)ccc2c3=O)cc1 | 300 to 302
33 | Nc1ccc(S(=O)(=O)Nc2ccc(Cl)cc2Cl)cc1 | 162 to 164
34 | CNc1ncccn1 | 60 to 62
35 | NC(=S)c1cnc2ccccn12 | 214 to 216
36 | O=C(CO)N1CCCC1 | 37 to 39
37 | COC(=O)c1cnn2c1CCCC2 | 64 to 66
38 | CC(=O)c1cc(C)cc(C(C)=O)c1O | 50 to 52
39 | CN(C)C(=O)C1CNc2ccccc2O1 (stereo unspecified) | 90 to 92
40 | Brc1cccc(-n2cnnn2)c1 | 90 to 92
41 | FC(F)c1nc2c(Cl)cccc2[nH]1 | 125 to 127
42 | [N-]=[N+]=Nc1ccnc(CO)c1 | 59 to 61
43 | NNC(=O)COc1ccc(OCc2ccccc2)cc1 | 142 to 144
44 | O=C(O)CNC(=O)CC12CC3CC(CC(C3)C1)C2 | 165 to 167
45 | CC(=O)CC(=O)N1CCOCC1 | 68 to 70
46 | Nc1[nH]nc(-c2ccccc2)c1-c1ccccc1 | 141 to 143
47 | CCOC(=O)C(N)=NO | 94 to 96
48 | NS(=O)(=O)NCc1ccccn1 | 138 to 140
49 | NS(=O)(=O)CCN1CCNCC1 | 144 to 146
50 | O=S1(=O)CCCC(O)C1 (stereo unspecified) | 99 to 101
51 | O=C(O)c1cc(-c2ccc3c(c2)CCO3)no1 | 235 to 237
52 | C1CCC(c2nnc3n2CCCC3)NC1 (stereo unspecified) | 107 to 109

Row | SMILES | melting point [°C]
53 | O=S(=O)(c1ccc(CCl)cc1)C(F)F | 63 to 65
54 | Clc1cnc(Cl)nc1 | 55 to 57
55 | NC1CCN(C(=O)C2CC2)CC1 | 53 to 55
56 | O=S(=O)(c1cccc(Br)c1)N1CCNCC1 | 97 to 101
57 | N#Cc1ccc(OCC2CO2)cc1 (stereo unspecified) | 64 to 66
58 | Cn1nc(C(=O)O)cc1-c1ccc2c(c1)OCO2 | 214 to 216
59 | CC(C)c1noc2nc(-c3cccnc3)cc(C(=O)O)c12 | 279 to 281
60 | NS(=O)(=O)C#Cc1ccccc1 | 136 to 138
61 | O=C(CCl)Nc1cc(C2CC2)nn1-c1ccccc1 | 120 to 122
62 | N#CCCCN1CCOCC1 | 67 to 69
63 | N#Cc1cccc(C(F)(F)F)n1 | 36 to 38
64 | COC(=O)c1cc(OC)ccc1S(=O)(=O)Cl | 49 to 51
65 | O=C1NS(=O)(=O)c2ccc(Br)cc21 | 245 to 247
66 | CSCCC(NC(=O)c1ccc(Cl)cc1Cl)C(=O)O (stereo unspecified) | 79 to 81
67 | Cc1ccc(-n2nc(C(=O)O)c3c2CCC3)cc1 | 224 to 226
68 | Fc1ccc2c(Cl)ncnc2c1 | 90 to 92
69 | CC(C)(C)OC(=O)N1CCN(C(N)=O)C(C(=O)O)C1 (stereo unspecified) | 158 to 160
70 | NC(=O)NC(CC(=O)O)c1cccc(Br)c1 (stereo unspecified) | 159 to 161
71 | Cc1ccccc1-c1nn(-c2ccccc2)cc1C(=O)O | 177 to 179
72 | O=C(O)c1cc(-c2ccccc2)nc2c1cnn2Cc1cccnc1 | 210 to 212
73 | O=C(C(=O)c1ccc(Cl)cc1)c1ccc(Cl)cc1 | 198 to 200
74 | CN(c1ccccc1)S(=O)(=O)c1cc(C(=O)O)ccc1Br | 204 to 206
75 | COc1ccc(NC(=O)c2ccc(CCl)cc2)cc1 | 189 to 191
76 | O=C(COc1ccc(F)cc1)N1CCNCC1 | 89 to 91

Continued, values first:

Row | melting point [°C] | SMILES
77 | 131 to 133 | Cc1c(NC(=O)CCCl)cccc1[N+](=O)[O-]
78 | 137 to 139 | COc1ccc(S(=O)(=O)N2CCCCC2)cc1N
79 | 59 to 61 | Nc1ccnn1Cc1ccc(F)cc1
80 | 60 to 62 | O=C(CCSc1ccccn1)c1ccc(F)cc1
81 | 100 to 102 | Nc1cc(-c2ccc(F)cc2)no1
82 | 231 to 233 | CCS(=O)(=O)N1CCc2cc(C(=O)CCl)ccc21
83 | 231 to 233 | CC1(c2ccncc2)NC(=O)NC1=O (stereo unspecified)
84 | 153 to 155 | CC(C)(C)[Si](C)(C)Oc1cc(C(=O)O)cc2ccccc12
85 | 56 to 58 | COCCOc1c(N)cccc1Cl
86 | 124 to 126 | CN(C)C(=O)Cn1ccc2cc(N)ccc21
87 | 189 to 191 | Oc1ccc2cn[nH]c2c1
88 | 96 to 98 | CCCCC(NC(=O)NCC)C(=O)O (stereo unspecified)
89 | 147 to 149 | Nc1sc2c(c1C(=O)O)CCC2
90 | 317 to 319 | CC(C)NC(=O)Nc1ccccc1N
91 | 132 to 134 | Cc1ccc2cc(CCl)c(Cl)nc2c1
92 | 219 to 221 | Sc1nc(C2CC2)nc2ccccc12
93 | 63 to 65 | CC(C)(C)OC(=O)NCc1ccc2c(c1)CCCN2
94 | 75 to 77 | CC(=O)c1cnn(-c2ccccn2)c1C
95 | 127 to 131 | CC(=O)c1ccc(N2CCCC2=O)cc1
96 | 234 to 236 | O=C(O)CCNC(=O)c1ccc2cn[nH]c2c1
97 | 170 to 172 | Cc1c(N)cccc1N1CCCC1=O
98 | 82 to 84 | CCOC(OCC)c1cc(-c2cccc(F)c2)[nH]n1

Row | melting point [°C] | SMILES
99 | 143 to 145 | COc1ccccc1Nc1nc(-c2ccc(C)cc2)cs1
100 | 146 to 148 | Cc1cccc(C)c1-n1nnnc1S
101 | 148 to 150 | Oc1ccc(-c2nc(-c3ccccc3)cs2)cc1
102 | 52 to 54 | Oc1ccc2ccccc2c1CN1CCOCC1
103 | 108 to 110 | CC(C)c1nc(N)n(C)n1
104 | 53 to 55 | CCCc1nc(N)sc1CC
105 | 239 to 241 | CN1C(=O)CCC(C(N)=O)C1c1ccc(C(F)(F)F)cc1 (stereo unspecified)
106 | 245 to 247 | Cc1nc2c(c(C)nn2C)c(C)c1CC(=O)O
107 | 69 to 71 | Cc1cc(Br)cc2cc(C(=O)C(C)C)oc12
108 | 89 to 91 | Nc1nc(CCCC(=O)O)cs1
109 | 71 to 80 | CCN1CCc2nc(N)sc2C1
110 | 56 to 58 | Cc1nonc1N
111 | 197 to 199 | Cc1ccc(C(=O)O)c(O)c1C
112 | 124 to 126 | Nc1cccc(-c2ccc3ccccc3c2)n1
113 | 156 to 158 | O=C(O)c1ccc(OCC2CC2)nc1
114 | 152 to 154 | O=C(O)CCc1nc(-c2ccc(Cl)cc2)no1
115 | 219 to 221 | O=C(O)Cn1ncc2ccc([N+](=O)[O-])cc21
116 | 211 to 213 | Cc1c[nH]c(=O)n1-c1ccccc1F
117 | 209 to 211 | Nc1cc2c(cc1Br)NC(=O)CO2
118 | 142 to 144 | O=c1cc(CCl)c2cc3c(cc2o1)CCC3
119 | 135 to 137 | COC(=O)CCc1nnc(N)s1
120 | 218 to 220 | Cc1cc(NC(N)=S)n(C)n1

Row | melting point [°C] | SMILES
121 | 176 to 178 | NC(=O)Nc1ccc(Cl)c(N)c1
122 | 146 to 148 | CC(C)(C(=O)O)c1ccc2ccccc2c1
123 | 164 to 166 | Cc1noc(C2CC2)c1C(=O)O
124 | 172 to 174 | Nc1ncc(Br)nc1C(=O)O
125 | 149 to 151 | COC(=O)c1c(N)sc2c1CCC2
126 | 167 to 169 | CC(C)N1CCc2c(sc(N)c2C#N)C1
127 | 79 to 81 | COC(=O)c1cc(N)cc(I)c1
128 | 70 to 72 | CCCCNc1nc2ccc(C)cc2s1
129 | 290 to 292 | CN1C(=O)C(C#N)=C(N)C12CCCC2
130 | 189 to 191 | Nc1cccc(-c2cn[nH]c2)c1
131 | 120 to 122 | Oc1ccccc1OCc1cscn1
132 | 105 to 107 | Nc1nc2ccc(SC(F)F)cc2s1
133 | 153 to 155 | O=C1CCCc2nc(-c3ccccc3F)sc21
134 | 160 to 162 | CCCC(NC(=O)NCc1ccc(Br)cc1)C(=O)O (stereo unspecified)
135 | 199 to 201 | NC(CSCc1cccc2ccccc12)C(=O)O (stereo unspecified)
136 | 214 to 216 | CCCc1c(C(=O)O)[nH]c(C)c1C(C)=O
137 | 59 to 61 | COCc1nc(CC(=O)O)cs1
138 | 101 to 103 | Cc1cc(C(=O)N2CCOCC2)ccc1N
139 | 174 to 176 | Cc1cc(Br)cn2c(CO)cnc12
140 | 94 to 96 | COc1ccc2c(c1)OCC2CC(=O)O (stereo unspecified)
141 | 234 to 236 | Cc1nn(-c2ccccc2)c2sc(C(=O)O)cc12

From a melting point compilation (Tetko et al.)
